Read-outs that look alike come from different tables or passages of the source.
Assays:
MRL/lpr mice [1] = assay: Survival / mortality, MRL/lpr mice (Example 1); settings: for EOS survival, true EOS mouse percentage from starting population: vehicle 92
Procedure: Six week old lupus-prone, female, MRL/lpr (Jackson Labs, #000485) and non-lupus prone control MRL/MpJ (Jackson Labs, #000486) mice are obtained from Jackson Laboratories (Bar Harbor, Me.) at 6-weeks of age. All mice are maintained on a 24 hour light/dark cycle, with food and water available ad libitum. All experimental animal procedures are approved by and in accordance to the regulations of the Institutional Animal Care and Use Committee (IACUC) of Cephalon, Inc; approved IACUC protocol #03-040 and #03-03-041.
Due to this impaired tolerance mechanism, a percentage of all T and B cells that enter the periphery have a high likelihood of responding to self protein/tissues and thus initiate autoimmunity early in life. The MRL/lpr model mice develop several chronic inflammatory disease-like symptoms that are characteristic of early and late lupus including the generation of anti-nuclear antibodies, arthritis, dermatological manifestations, immunocomplex-mediated glomerulonephritis leading to proteinuria and eventual death. Lesser characterized phenomenon are CNS and cardiac manifestations, both of which are more common in humans. […] Mortality is higher in the females and occurs around 25 weeks of age, renal disease includes glomerulonephritis, glomerular infiltrates, sclerosis and vasculitis. Both splenomegaly and lymphomegaly associated with dermatitis can also be observed.
MRL/lpr mice are first randomized, initial bleeds collected, and body weights recorded for baseline measurements (FIG. 1). All mice are individually ear tagged and are monitored throughout the entire experiment (e.g., “Group#-Cage letter-Mouse#”, so “3B5”=Group 3 (G3), cage B, mouse #5). Mice are age-matched and treatment started at 6-8 weeks of age. Cheek bleeds and urine collection continues weekly throughout the experiment. Mice are individually tracked for several parameters including cytokine and ANA levels, proteinuria, body mass, lymphomegaly, general health, and mortality. All parameters are evaluated bi-monthly except mortality which is monitored daily. All groups consist of a minimum of at least 10-12 mice per group. Ex vivo experiments include flow cytometry analyses for plasma cells, serum complement C3 and ANA levels; urine protein and leukocytes, serum cytokine profiling, renal histo pathology, and determination of compound levels (pharmacokinetics (PK)) in the spleen, kidney and plasma. Mice are tracked on an individual basis. For all data, mice are grouped into populations and data graphed as mean±SEM. End-stage readouts are analyzed as described in the MATERIALS AND METHODS section (above) and in FIG. 1.
Vehicle alone is provided orally twice weekly (p.o.). Both proteasome inhibitors are suspended in the vehicle solution. Bi-monthly bleeds and urine are collected and frozen at […] until assayed. End analyses include kidney histology, splenocyte B-cell Elispots, flow cytometry for B and T cell populations, PD markers, serum cytokines, antibody and complement levels. In addition, urine proteinuria is determined for all animals.
In group two (G2), COMPOUND A was administered at a dose of 3 mg/kg iv twice weekly. In group three (G3), COMPOUND A was administered at a dose of 10 mg/kg p.o. twice weekly. […] In the new group five (G5), bortezomib was administered at a dose of 0.3 mg/kg iv twice weekly. Dexamethasone was administered at a dose of 1.5 mg/kg/2d (M, W, F) ip. Vehicle was 3% DMSO/10% Solutol/87% PBS. In those instances in which mice could not be injected via the iv route, agents were administered ip as noted in Table 1.

MRL/lpr mice [2] = assay: Lymphomegaly (enlarged lymph nodes), MRL/lpr mice; type: in vivo, mouse
Procedure: FIG. 4 depicts lymphomegaly for MRL/lpr mice across treatment groups for the study duration. MRL/lpr mice were treated as outlined in the legend. Lymphomegaly or presence of enlarged lymph nodes were observed weekly and noted.
Mice are tracked on an individual basis.
Vehicle alone is provided orally twice weekly (p.o.). Both proteasome inhibitors are suspended in the vehicle solution. […] In addition, urine proteinuria is determined for all animals.
Vehicle was 3% DMSO/10% Solutol/87% PBS.

NZM mice = type: in vivo, mouse

CC(C)C[C@H](NC(=O)[C@H](Cc1ccccc1)NC(=O)c1cnccn1)B(O)O [bortezomib, reference compound]
decrease in survival over that of vehicle at EOS (MRL/lpr mice [1]; 0.3 mg/kg iv twice weekly): 19% | decrease in survival over that of vehicle at EOS (MRL/lpr mice [1]; 0.5 mg/kg iv once weekly): 2% | EOS survival, true EOS mouse percentage from starting population (MRL/lpr mice [1]; G4: 0.5 mg/kg iv, 1× wk): 90% | EOS survival, true EOS mouse percentage from starting population (MRL/lpr mice [1]; G5: 0.3 mg/kg iv, 2× wk): 73% | tolerability of initial dose (MRL/lpr mice [1]; initial G4 dose 0.5 mg/kg iv twice weekly): animal mortality | AUC lymphomegaly, percent of non enlarged lymph nodes relative to vehicle (MRL/lpr mice [2]; G4: 0.5 mg/kg iv, 1× wk): 13% | AUC lymphomegaly, percent of non enlarged lymph nodes relative to vehicle (MRL/lpr mice [2]; G5: 0.3 mg/kg iv, 2× wk): 21% | effect on lymphomegaly (MRL/lpr mice [2]; bortezomib treatment groups): did not significantly reduce lymphomegaly | Cytokine IL-12 AUC, percent change vs vehicle (NZM mice; G3 0.3 mg/kg ip, 1× wk): −32% | Cytokine IL-13 AUC, percent change vs vehicle (NZM mice; G3 0.3 mg/kg ip, 1× wk): −66% | Cytokine IL-17A AUC, percent change vs vehicle (NZM mice; G3 0.3 mg/kg ip, 1× wk): −73% | Cytokine IP-10 AUC, percent change vs vehicle (NZM mice; G3 0.3 mg/kg ip, 1× wk): −50% | Cytokine MIG AUC, percent change vs vehicle (NZM mice; G3 0.3 mg/kg ip, 1× wk): −67% | Cytokine TNFα AUC, percent change vs vehicle (NZM mice; G3 0.3 mg/kg ip, 1× wk): 12% | Cytokine IL-12 AUC, percent change vs vehicle (NZM mice; G4 0.3 mg/kg ip, 2× wk): −55% | Cytokine IL-13 AUC, percent change vs vehicle (NZM mice; G4 0.3 mg/kg ip, 2× wk): −65% | Cytokine IL-17A AUC, percent change vs vehicle (NZM mice; G4 0.3 mg/kg ip, 2× wk): −85% | Cytokine IP-10 AUC, percent change vs vehicle (NZM mice; G4 0.3 mg/kg ip, 2× wk): −59% | Cytokine MIG AUC, percent change vs vehicle (NZM mice; G4 0.3 mg/kg ip, 2× wk): −72% | Cytokine TNFα AUC, percent change vs vehicle (NZM mice; G4 0.3 mg/kg ip, 2× wk): −29% | p, serum IL-12p40/p70 concentration vs G9 Vehicle 1× wk ip (NZM mice; G5 0.3 mg/kg 1× wk ip): NS (NS = not significant (p > 0.05)) | p, serum IL-13 concentration vs G9 Vehicle 1× wk ip (NZM mice; G5 0.3 mg/kg 1× wk ip): NS (NS = not significant (p > 0.05)) | p, serum IL-17A concentration vs G9 Vehicle 1× wk ip (NZM mice; G5 0.3 mg/kg 1× wk ip): NS (NS = not significant (p > 0.05)) | p, serum IP-10 concentration vs G9 Vehicle 1× wk ip (NZM mice; G5 0.3 mg/kg 1× wk ip): p < 0.001 | p, serum MIG concentration vs G9 Vehicle 1× wk ip (NZM mice; G5 0.3 mg/kg 1× wk ip): NS (NS = not significant (p > 0.05)) | p, serum TNFα concentration vs G9 Vehicle 1× wk ip (NZM mice; G5 0.3 mg/kg 1× wk ip): NS (NS = not significant (p > 0.05)) | p, serum IL-12p40/p70 concentration vs G9 Vehicle 1× wk ip (NZM mice; G6 0.3 mg/kg 2× wk ip): p < 0.05 | p, serum IL-13 concentration vs G9 Vehicle 1× wk ip (NZM mice; G6 0.3 mg/kg 2× wk ip): NS (NS = not significant (p > 0.05)) | p, serum IL-17A concentration vs G9 Vehicle 1× wk ip (NZM mice; G6 0.3 mg/kg 2× wk ip): NS (NS = not significant (p > 0.05)) | p, serum IP-10 concentration vs G9 Vehicle 1× wk ip (NZM mice; G6 0.3 mg/kg 2× wk ip): p < 0.001 | p, serum MIG concentration vs G9 Vehicle 1× wk ip (NZM mice; G6 0.3 mg/kg 2× wk ip): NS (NS = not significant (p > 0.05)) | p, serum TNFα concentration vs G9 Vehicle 1× wk ip (NZM mice; G6 0.3 mg/kg 2× wk ip): NS (NS = not significant (p > 0.05)) | serum IL-12 decrease vs vehicle, range over the substance's groups (NZM mice; once and twice weekly groups): 32-55% | serum CXCL9/MIG as compared to CTX (NZM mice; p<0.001 vs CTX, but not to DEX): decreased | IL-13 serum levels compared to vehicle (NZM mice; treatment groups): No significant change | IL-17A serum levels compared to vehicle (NZM mice; treatment groups): No significant change

C[C@@H]1C[C@H]2[C@@H]3CCC4=CC(=O)C=C[C@]4(C)[C@@]3(F)[C@@H](O)C[C@]2(C)[C@@]1(O)C(=O)CO [dexamethasone, Dexamethasone, reference compound]
EOS survival, true EOS mouse percentage from starting population (MRL/lpr mice [1]; G6: 1.5 mg/kg ip, 3× wk): 83% | AUC lymphomegaly, percent of non enlarged lymph nodes relative to vehicle (MRL/lpr mice [2]; G6: 1.5 mg/kg ip, 3× wk): 22% | Cytokine IL-12 AUC, percent change vs vehicle (NZM mice; G5 1.5 mg/kg ip, 3× wk): −48% | Cytokine IL-13 AUC, percent change vs vehicle (NZM mice; G5 1.5 mg/kg ip, 3× wk): −56% | Cytokine IL-17A AUC, percent change vs vehicle (NZM mice; G5 1.5 mg/kg ip, 3× wk): −55% | Cytokine IP-10 AUC, percent change vs vehicle (NZM mice; G5 1.5 mg/kg ip, 3× wk): −37% | Cytokine MIG AUC, percent change vs vehicle (NZM mice; G5 1.5 mg/kg ip, 3× wk): −68% | Cytokine TNFα AUC, percent change vs vehicle (NZM mice; G5 1.5 mg/kg ip, 3× wk): 79% | p, serum IL-12p40/p70 concentration vs G5 Bortezomib 0.3 mg/kg 1× wk ip (NZM mice; G8 1.5 mg/kg 3× wk ip): NS (NS = not significant (p > 0.05)) | p, serum IL-12p40/p70 concentration vs G6 Bortezomib 0.3 mg/kg 2× wk ip (NZM mice; G8 1.5 mg/kg 3× wk ip): NS (NS = not significant (p > 0.05)) | p, serum IL-12p40/p70 concentration vs G7 CTX 50 mg/kg 1× wk ip (NZM mice; G8 1.5 mg/kg 3× wk ip): NS (NS = not significant (p > 0.05)) | p, serum IL-12p40/p70 concentration vs G9 Vehicle 1× wk ip (NZM mice; G8 1.5 mg/kg 3× wk ip): NS (NS = not significant (p > 0.05)) | p, serum IL-13 concentration vs G5 Bortezomib 0.3 mg/kg 1× wk ip (NZM mice; G8 1.5 mg/kg 3× wk ip): NS (NS = not significant (p > 0.05)) | p, serum IL-13 concentration vs G6 Bortezomib 0.3 mg/kg 2× wk ip (NZM mice; G8 1.5 mg/kg 3× wk ip): NS (NS = not significant (p > 0.05)) | p, serum IL-13 concentration vs G7 CTX 50 mg/kg 1× wk ip (NZM mice; G8 1.5 mg/kg 3× wk ip): p < 0.001 | p, serum IL-13 concentration vs G9 Vehicle 1× wk ip (NZM mice; G8 1.5 mg/kg 3× wk ip): NS (NS = not significant (p > 0.05)) | p, serum IL-17A concentration vs G5 Bortezomib 0.3 mg/kg 1× wk ip (NZM mice; G8 1.5 mg/kg 3× wk ip): NS (NS = not significant (p > 0.05)) | p, serum IL-17A concentration vs G6 Bortezomib 0.3 mg/kg 2× wk ip (NZM mice; G8 1.5 mg/kg 3× wk ip): NS (NS = not significant (p > 0.05)) | p, serum IL-17A concentration vs G7 CTX 50 mg/kg 1× wk ip (NZM mice; G8 1.5 mg/kg 3× wk ip): p < 0.001 | p, serum IL-17A concentration vs G9 Vehicle 1× wk ip (NZM mice; G8 1.5 mg/kg 3× wk ip): NS (NS = not significant (p > 0.05)) | p, serum IP-10 concentration vs G5 Bortezomib 0.3 mg/kg 1× wk ip (NZM mice; G8 1.5 mg/kg 3× wk ip): NS (NS = not significant (p > 0.05)) | p, serum IP-10 concentration vs G6 Bortezomib 0.3 mg/kg 2× wk ip (NZM mice; G8 1.5 mg/kg 3× wk ip): NS (NS = not significant (p > 0.05)) | p, serum IP-10 concentration vs G7 CTX 50 mg/kg 1× wk ip (NZM mice; G8 1.5 mg/kg 3× wk ip): p < 0.001 | p, serum IP-10 concentration vs G9 Vehicle 1× wk ip (NZM mice; G8 1.5 mg/kg 3× wk ip): p < 0.001 | p, serum MIG concentration vs G5 Bortezomib 0.3 mg/kg 1× wk ip (NZM mice; G8 1.5 mg/kg 3× wk ip): NS (NS = not significant (p > 0.05)) | p, serum MIG concentration vs G6 Bortezomib 0.3 mg/kg 2× wk ip (NZM mice; G8 1.5 mg/kg 3× wk ip): NS (NS = not significant (p > 0.05)) | p, serum MIG concentration vs G7 CTX 50 mg/kg 1× wk ip (NZM mice; G8 1.5 mg/kg 3× wk ip): p < 0.001 | p, serum MIG concentration vs G9 Vehicle 1× wk ip (NZM mice; G8 1.5 mg/kg 3× wk ip): NS (NS = not significant (p > 0.05)) | p, serum TNFα concentration vs G5 Bortezomib 0.3 mg/kg 1× wk ip (NZM mice; G8 1.5 mg/kg 3× wk ip): NS (NS = not significant (p > 0.05)) | p, serum TNFα concentration vs G6 Bortezomib 0.3 mg/kg 2× wk ip (NZM mice; G8 1.5 mg/kg 3× wk ip): p <0.01 | p, serum TNFα concentration vs G7 CTX 50 mg/kg 1× wk ip (NZM mice; G8 1.5 mg/kg 3× wk ip): p <0.05 | p, serum TNFα concentration vs G9 Vehicle 1× wk ip (NZM mice; G8 1.5 mg/kg 3× wk ip): NS (NS = not significant (p > 0.05))

— patent US9340559B2, “Proteasome inhibitor delanzomib for use in the treatment of lupus” (Cephalon, Inc., priority 2011, dated 2016)
